Paper PMC10689823, “Discovery of a Drug-like, Natural Product-Inspired DCAF11 Ligand Chemotype” (Nature Communications, 2023)

Molecular target: BRD4S-TagBFP reporter (Homo sapiens, UniProt O60885)
Assay: FACS-based CRISPR/Cas9 BRD4 protein stability screen
Method: The virus containing supernatant was cleared of cellular debris by filtration through a 0.45-µm PES filter and used to transduce KBM7 BRD4-BFP reporter cells harboring a doxycycline inducible Cas9 allele at a multiplicity of infection (MOI) of 0.05 and 1,000-fold library representation. Library-transduced cells were selected with G418 (1 mg ml^−1, Gibco) for 14 days, expanded and Cas9 expression was induced with DOX (0.4 µg ml^−1, PanReac AppliChem).
Cells were washed with and stored in FACS buffer (PBS containing 5% FBS and 1 mM EDTA) at 4 °C overnight. The next day, cells were strained trough a 35 µm nylon mesh and sorted on a BD FACSAria™ Fusion (BD Biosciences) using a 85 µm nozzle. Aggregates, dead (ZombieNIR positive), Cas9-negative (GFP) and sgRNA library-negative (Thy1.1-APC) cells were excluded, and the remaining cells were sorted based on their BRD4-BFP and mCherry levels into BRD4^HIGH (10% of cells), BRD4^MID (30%) and BRD4^LOW (10%) fractions. For each sample, cells corresponding to at least 2,000-fold library representation were sorted per replicate.
Next-generation sequencing (NGS) libraries of sorted cell fractions were prepared as previously described[25]. In brief, genomic DNA was isolated by cell lysis (10 mM Tris-HCl, 150 mM NaCl, 10 mM EDTA, 0.1% SDS), proteinase K treatment (New England Biolabs) and DNAse-free RNAse digest (Thermo Fisher Scientific), followed by two rounds of phenol extraction and 2-propanol precipitation. Isolated genomic DNA was subjected to several freeze–thaw cycles before nested polymerase chain reaction (PCR) amplification of the sgRNA cassette.
Barcoded NGS libraries for each sorted population were generated using a two-step PCR protocol using AmpliTaq Gold (Invitrogen). The resulting PCR products were purified using Mag-Bind® TotalPure NGS beads (Omega Bio-tek) and amplified in a second PCR introducing the standard Illumina adapters. The final Illumina libraries were bead-purified, pooled and sequenced on a HiSeq 3500 platform (Illumina).
Screen analysis was performed as previously described[25]. Briefly, sequencing reads were quantified using the crispr-process-nf Nextflow workflow, available at https://github.com/ZuberLab/crispr-process-nf/tree/566f6d46bbcc2a3f49f51bbc96b9820f408ec4a3. For statistical analysis, we used the crispr-mageck-nf Nextflow workflow, available at https://github.com/ZuberLab/crispr-mageck-nf/tree/c75a90f670698bfa78bfd8be786d6e5d6d4fc455. To calculate gene-level enrichment, the sorted populations (BRD4^HIGH or BRD4^LOW) were compared to the BRD4^MID populations in MAGeCK (0.5.9)[46], using median normalized read counts.

Low_lfc (Gene FBXL18, Mageck_Gene level): 0.05
Low_logP (Gene FBXL18, Mageck_Gene level): 0.07
High_lfc (Gene FBXL19, Mageck_Gene level): -0.41
High_logP (Gene FBXL19, Mageck_Gene level): 0
Low_lfc (Gene FBXL19, Mageck_Gene level): 0.11
Low_logP (Gene FBXL19, Mageck_Gene level): 0.48
High_lfc (Gene FBXL20, Mageck_Gene level): -0.06
High_logP (Gene FBXL20, Mageck_Gene level): 0.09
Low_lfc (Gene FBXL20, Mageck_Gene level): -0.11
Low_logP (Gene FBXL20, Mageck_Gene level): 0.04
High_lfc (Gene FBXL21, Mageck_Gene level): -0.29
High_logP (Gene FBXL21, Mageck_Gene level): 0.09
Low_lfc (Gene FBXL21, Mageck_Gene level): -0.29
Low_logP (Gene FBXL21, Mageck_Gene level): 0.01
High_lfc (Gene FBXL22, Mageck_Gene level): 0.14
High_logP (Gene FBXL22, Mageck_Gene level): 0.24
Low_lfc (Gene FBXL22, Mageck_Gene level): 0.36
Low_logP (Gene FBXL22, Mageck_Gene level): 0.63
High_lfc (Gene FBXO2, Mageck_Gene level): -0.09
High_logP (Gene FBXO2, Mageck_Gene level): 0.03
Low_lfc (Gene FBXO2, Mageck_Gene level): 0.42
Low_logP (Gene FBXO2, Mageck_Gene level): 1.6
High_lfc (Gene FBXO10, Mageck_Gene level): 0.22
High_logP (Gene FBXO10, Mageck_Gene level): 0.52
Low_lfc (Gene FBXO10, Mageck_Gene level): -0.18
Low_logP (Gene FBXO10, Mageck_Gene level): 0.08
High_lfc (Gene FBXO11, Mageck_Gene level): -0.38
High_logP (Gene FBXO11, Mageck_Gene level): 0.01
Low_lfc (Gene FBXO11, Mageck_Gene level): -0.03
Low_logP (Gene FBXO11, Mageck_Gene level): 0.19
High_lfc (Gene FBXO15, Mageck_Gene level): -0.34
High_logP (Gene FBXO15, Mageck_Gene level): 0.01
Low_lfc (Gene FBXO15, Mageck_Gene level): -0.22
Low_logP (Gene FBXO15, Mageck_Gene level): 0.07
High_lfc (Gene FBXO16, Mageck_Gene level): -0.28
High_logP (Gene FBXO16, Mageck_Gene level): 0.17
Low_lfc (Gene FBXO16, Mageck_Gene level): -0.34
Low_logP (Gene FBXO16, Mageck_Gene level): 0.13
High_lfc (Gene FBXO17, Mageck_Gene level): 0.05
High_logP (Gene FBXO17, Mageck_Gene level): 0.04
Low_lfc (Gene FBXO17, Mageck_Gene level): -0.01
Low_logP (Gene FBXO17, Mageck_Gene level): 0.24
High_lfc (Gene FBXO18, Mageck_Gene level): 0.01
High_logP (Gene FBXO18, Mageck_Gene level): 0.35
Low_lfc (Gene FBXO18, Mageck_Gene level): -0.24
Low_logP (Gene FBXO18, Mageck_Gene level): 0.06
High_lfc (Gene FBXO21, Mageck_Gene level): -0.09
High_logP (Gene FBXO21, Mageck_Gene level): 0.15
Low_lfc (Gene FBXO21, Mageck_Gene level): 0.26
Low_logP (Gene FBXO21, Mageck_Gene level): 0.57
High_lfc (Gene FBXO22, Mageck_Gene level): 0.33
High_logP (Gene FBXO22, Mageck_Gene level): 0.56
Low_lfc (Gene FBXO22, Mageck_Gene level): 0.08
Low_logP (Gene FBXO22, Mageck_Gene level): 0.24
High_lfc (Gene FBXO24, Mageck_Gene level): 0.01
High_logP (Gene FBXO24, Mageck_Gene level): 0.17
Low_lfc (Gene FBXO24, Mageck_Gene level): 0.28
Low_logP (Gene FBXO24, Mageck_Gene level): 0.95
High_lfc (Gene FBXO25, Mageck_Gene level): -0.09
High_logP (Gene FBXO25, Mageck_Gene level): 0.13
Low_lfc (Gene FBXO25, Mageck_Gene level): -0.06
Low_logP (Gene FBXO25, Mageck_Gene level): 1.23
High_lfc (Gene FBXO27, Mageck_Gene level): 0.07
High_logP (Gene FBXO27, Mageck_Gene level): 0.26
Low_lfc (Gene FBXO27, Mageck_Gene level): 0.17
Low_logP (Gene FBXO27, Mageck_Gene level): 0.61
High_lfc (Gene FBXO28, Mageck_Gene level): 0.25
High_logP (Gene FBXO28, Mageck_Gene level): 0.91
Low_lfc (Gene FBXO28, Mageck_Gene level): -0.03
Low_logP (Gene FBXO28, Mageck_Gene level): 0.09
High_lfc (Gene FBXO30, Mageck_Gene level): -0.15
High_logP (Gene FBXO30, Mageck_Gene level): 0.06
Low_lfc (Gene FBXO30, Mageck_Gene level): 0.12
Low_logP (Gene FBXO30, Mageck_Gene level): 0.2
High_lfc (Gene FBXO31, Mageck_Gene level): 0.02
High_logP (Gene FBXO31, Mageck_Gene level): 0.11
Low_lfc (Gene FBXO31, Mageck_Gene level): 0.28
Low_logP (Gene FBXO31, Mageck_Gene level): 0.85
High_lfc (Gene FBXO32, Mageck_Gene level): 0.06
High_logP (Gene FBXO32, Mageck_Gene level): 0.14
Low_lfc (Gene FBXO32, Mageck_Gene level): 0.27
Low_logP (Gene FBXO32, Mageck_Gene level): 0.47
High_lfc (Gene FBXO33, Mageck_Gene level): -0.49
High_logP (Gene FBXO33, Mageck_Gene level): 0
Low_lfc (Gene FBXO33, Mageck_Gene level): 0.19
Low_logP (Gene FBXO33, Mageck_Gene level): 0.87
High_lfc (Gene FBXO34, Mageck_Gene level): 0.22
High_logP (Gene FBXO34, Mageck_Gene level): 0.61
Low_lfc (Gene FBXO34, Mageck_Gene level): 0.1
Low_logP (Gene FBXO34, Mageck_Gene level): 0.25
High_lfc (Gene FBXO36, Mageck_Gene level): -0.13
High_logP (Gene FBXO36, Mageck_Gene level): 0.23
Low_lfc (Gene FBXO36, Mageck_Gene level): -0.41
Low_logP (Gene FBXO36, Mageck_Gene level): 0.06
High_lfc (Gene FBXO38, Mageck_Gene level): -0.17
High_logP (Gene FBXO38, Mageck_Gene level): 0.01
Low_lfc (Gene FBXO38, Mageck_Gene level): 0.33
Low_logP (Gene FBXO38, Mageck_Gene level): 0.72
High_lfc (Gene FBXO39, Mageck_Gene level): 0
High_logP (Gene FBXO39, Mageck_Gene level): 0.18
Low_lfc (Gene FBXO39, Mageck_Gene level): 0.15
Low_logP (Gene FBXO39, Mageck_Gene level): 0.56
CRL substrate receptor scoring as top hit (gene required for BRD4 degradation) (KBM7 BRD4-BFP reporter cells, 9 0.5 µM, 10 1 µM, dBET6 10 nM, 6 hours): DCAF11
High_lfc (gene FBXO3): 0.05
High_logP (gene FBXO3): 0.25
Low_lfc (gene FBXO3): -0.2
Low_logP (gene FBXO3): 0.19
High_lfc (gene FBXO4): 0.12
High_logP (gene FBXO4): 0.38
Low_lfc (gene FBXO4): -0.12
Low_logP (gene FBXO4): 0.07
High_lfc (gene FBXO5): -0.26
High_logP (gene FBXO5): 0.37
Low_lfc (gene FBXO5): -0.71
Low_logP (gene FBXO5): 0.02
High_lfc (gene FBXO6): -0.04
High_logP (gene FBXO6): 0.23
Low_lfc (gene FBXO6): -0.19
Low_logP (gene FBXO6): 0.36
High_lfc (gene FBXO7): 0.07
High_logP (gene FBXO7): 0.57
Low_lfc (gene FBXO7): 0.01
Low_logP (gene FBXO7): 0.76
High_lfc (gene FBXO8): 0.03
High_logP (gene FBXO8): 0.11
Low_lfc (gene FBXO8): -0.03
Low_logP (gene FBXO8): 0.11
High_lfc (gene FBXO9): -0.02
High_logP (gene FBXO9): 0.04
Low_lfc (gene FBXO9): -0.02
Low_logP (gene FBXO9): 0.52
High_lfc (gene FBXO40): -0.13
High_logP (gene FBXO40): 0.02
Low_lfc (gene FBXO40): -0.27
Low_logP (gene FBXO40): 0.13
High_lfc (gene FBXO41): 0.17
High_logP (gene FBXO41): 0.26
Low_lfc (gene FBXO41): -0.12
Low_logP (gene FBXO41): 0.01
High_lfc (gene FBXO42): 0.01
High_logP (gene FBXO42): 0.18
Low_lfc (gene FBXO42): 0.28
Low_logP (gene FBXO42): 1.35
High_lfc (gene FBXO43): 0.05
High_logP (gene FBXO43): 0.29
Low_lfc (gene FBXO43): 0.06
Low_logP (gene FBXO43): 0.07
High_lfc (gene FBXO44): 0
High_logP (gene FBXO44): 0.11
Low_lfc (gene FBXO44): 0.17
Low_logP (gene FBXO44): 0.24
High_lfc (gene FBXO45): 0.31
High_logP (gene FBXO45): 0.64
Low_lfc (gene FBXO45): -0.13
Low_logP (gene FBXO45): 0.16
High_lfc (gene FBXO46): 0.28
High_logP (gene FBXO46): 0.48
Low_lfc (gene FBXO46): 0.32
Low_logP (gene FBXO46): 1.6
High_lfc (gene FBXO47): -0.53
High_logP (gene FBXO47): 0.06
Low_lfc (gene FBXO47): -0.35
Low_logP (gene FBXO47): 0.03
High_lfc (gene FBXO48): -0.41
High_logP (gene FBXO48): 0.11
Low_lfc (gene FBXO48): 0
Low_logP (gene FBXO48): 0.25
High_lfc (gene FBXW2): -0.12
High_logP (gene FBXW2): 0.08
Low_lfc (gene FBXW2): -0.53
Low_logP (gene FBXW2): 0.05
High_lfc (gene FBXW4): -0.31
High_logP (gene FBXW4): 0.02
Low_lfc (gene FBXW4): 0.22
Low_logP (gene FBXW4): 0.62
High_lfc (gene FBXW5): -0.14
High_logP (gene FBXW5): 0.16
Low_lfc (gene FBXW5): 0.15
Low_logP (gene FBXW5): 0.39
High_lfc (gene FBXW7): 0.41
High_logP (gene FBXW7): 1.48
Low_lfc (gene FBXW7): -0.31
Low_logP (gene FBXW7): 0.05
High_lfc (gene FBXW8): -0.18
High_logP (gene FBXW8): 0.19
Low_lfc (gene FBXW8): 0.19
Low_logP (gene FBXW8): 0.52
High_logP (gene FBXW9): 0
High_lfc (gene FBXW10): -0.05
High_logP (gene FBXW10): 0.14
Low_lfc (gene FBXW10): -0.09
Low_logP (gene FBXW10): 0.05
High_lfc (gene FBXW11): 0.12
High_logP (gene FBXW11): 0.29
Low_lfc (gene FBXW11): -0.29
Low_logP (gene FBXW11): 0.06
High_lfc (gene FBXW12): -0.19
High_logP (gene FBXW12): 0.02
Low_lfc (gene FBXW12): -0.05
Low_logP (gene FBXW12): 0.24
High_logP (gene FEM1A): 0.43
Compound: Cc1sc2c(c1C)C(c1ccc(Cl)cc1)=N[C@@H](CC(=O)NCCOCCOCCOCCOCCNC(=O)COc1c(Br)cc(/C=C3\C(=O)Nc4ccc(Br)cc43)cc1Br)c1nnc(C)n1-2 [Compound 9]
